Experimental data taken from patent publication US8664257B2, “Oxygen-substituted 3-heteroaroylamino-propionic acid derivatives and their use as pharmaceuticals” (Sanofi, priority 2010, dated 2014).

Target: T1, Recombinant human cathepsin A (Homo sapiens, UniProt P10619)
T1 construct: Recombinant human cathepsin A (residues 29-480, with a C-terminal 10-His tag); 10-His (C); purchased R&D Systems 1049-SE
T1 sequence (P10619 29-312 limits assumed): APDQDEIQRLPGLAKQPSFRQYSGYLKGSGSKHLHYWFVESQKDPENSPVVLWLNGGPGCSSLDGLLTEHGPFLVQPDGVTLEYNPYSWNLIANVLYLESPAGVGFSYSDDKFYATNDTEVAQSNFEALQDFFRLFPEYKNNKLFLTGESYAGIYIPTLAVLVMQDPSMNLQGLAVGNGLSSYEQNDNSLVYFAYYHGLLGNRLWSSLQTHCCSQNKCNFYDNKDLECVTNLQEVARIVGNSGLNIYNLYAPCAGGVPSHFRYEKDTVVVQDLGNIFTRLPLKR
T1 sequence (P10619 327-480 limits assumed): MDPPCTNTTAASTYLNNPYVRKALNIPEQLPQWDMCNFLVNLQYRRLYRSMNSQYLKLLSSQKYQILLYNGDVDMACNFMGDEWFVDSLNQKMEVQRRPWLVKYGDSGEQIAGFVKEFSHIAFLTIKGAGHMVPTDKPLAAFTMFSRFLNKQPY
Assay: Cathepsin A inhibitory activity
Assay type: biochemical
Settings: pharmacological test "Cathepsin A inhibitory activity"; IC50 given as class A/B/C; read-out: Activity (2): Cathepsin A inhibitory activity, IC50 class
Summary of the method: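 Read-out was microfluidic separation of cleaved vs. uncleaved Bodipy FL-bradykinin (2 μM), giving turnover, % inhibition and IC50. Compound and 833 ng/ml enzyme met for 15 min RT in pH 5.5 MES/DTT before substrate (15 min RT). The 29-480 His-tagged human enzyme was first activated by cathepsin L, then E-64 (10 μM).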

Row | SMILES | IC50
1 | O=C(O)CC(NC(=O)c1cc(O)n(-c2ccccc2)n1)c1cccc(Oc2ccc(Cl)cc2)c1 (stereo not drawn) [Example 173] | 1000 to 30000 nM
2 | O=C(O)CC(NC(=O)c1cc(O)n(-c2ccc(F)cc2F)n1)c1cccc2c1OCO2 (stereo not drawn) [Example 174] | 100 to 1000 nM
3 | O=C(O)C[C@H](NC(=O)c1cc(O)n(-c2ccc(F)cc2F)n1)c1ccccc1Br [Example 175] | 100 to 1000 nM
4 | N#Cc1ccc([C@H](CC(=O)O)NC(=O)c2cc(O)n(-c3ccc(F)cc3F)n2)cc1 [Example 176] | 100 to 1000 nM
5 | COc1ccccc1[C@H](CC(=O)O)NC(=O)c1cc(O)n(-c2ccc(F)cc2F)n1 [Example 177] | 100 to 1000 nM
6 | COc1ccc(Cl)cc1C(CC(=O)O)NC(=O)c1cc(O)n(-c2ccc(F)cc2F)n1 (stereo not drawn) [Example 178] | 1000 to 30000 nM
7 | COc1ccc(C(CC(=O)O)NC(=O)c2cc(O)n(-c3ccc(F)cc3F)n2)c(Cl)c1 (stereo not drawn) [Example 179] | 100 to 1000 nM
8 | O=C(O)C[C@H](NC(=O)c1cc(O)n(-c2ccc(F)cc2F)n1)c1ccc(F)cc1 [Example 180] | 100 to 1000 nM
9 | O=C(O)C[C@H](NC(=O)c1cc(O)n(-c2ccc(F)cc2F)n1)c1cccc(Cl)c1Cl [Example 181] | < 100 nM
10 | COc1cccc([C@H](CC(=O)O)NC(=O)c2cc(O)n(-c3ccc(F)cc3F)n2)c1 [Example 182] | 100 to 1000 nM
11 | O=C(O)C[C@H](NC(=O)c1cc(O)n(-c2ccc(F)cc2F)n1)c1cccc(F)c1 [Example 183] | 100 to 1000 nM
12 | O=C(O)C[C@H](NC(=O)c1cc(O)n(-c2ccc(F)cc2F)n1)c1cccc(Cl)c1 [Example 184] | 100 to 1000 nM
13 | O=C(O)C[C@H](NC(=O)c1cc(O)n(-c2ccc(F)cc2F)n1)c1ccc(C(F)(F)F)cc1 [Example 185] | 100 to 1000 nM
14 | O=C(O)CC(NC(=O)c1cc(O)n(-c2ccc(F)cc2F)n1)c1cccc(Cl)c1Cl (stereo not drawn) [Example 186] | 100 to 1000 nM
15 | O=C(O)CC(NC(=O)c1cc(O)n(-c2ccc(F)cc2F)n1)c1ccc(OC(F)(F)F)cc1 (stereo not drawn) [Example 187] | 100 to 1000 nM
16 | COc1ccccc1[C@@H](NC(=O)c1cc(O)n(-c2ccc(F)cc2F)n1)[C@@H](O)C(=O)O [Example 188] | 1000 to 30000 nM
17 | COc1cccc([C@H](CC(=O)O)NC(=O)c2cc(O)n(-c3ccc(F)cc3F)n2)c1OC [Example 189] | 100 to 1000 nM
18 | Cc1cccc([C@H](CC(=O)O)NC(=O)c2cc(O)n(-c3ccc(F)cc3F)n2)c1 [Example 190] | 100 to 1000 nM
19 | Cc1cccc(C(CC(=O)O)NC(=O)c2cc(O)n(-c3ccc(F)cc3F)n2)c1C (stereo not drawn) [Example 191] | < 100 nM
20 | O=C(O)CC(NC(=O)c1cc(O)n(-c2ccc(F)cc2F)n1)c1cccc(Cl)c1F (stereo not drawn) [Example 192] | 100 to 1000 nM
21 | O=C(O)CC(NC(=O)c1cc(O)n(-c2ccc(F)cc2F)n1)c1cccc(C(F)(F)F)c1Cl (stereo not drawn) [Example 193] | 100 to 1000 nM
22 | CCc1ccc(C(CC(=O)O)NC(=O)c2cc(O)n(-c3ccc(F)cc3F)n2)cc1 (stereo not drawn) [Example 194] | 100 to 1000 nM
23 | Cc1ccc(C(CC(=O)O)NC(=O)c2cc(O)n(-c3ccc(F)cc3F)n2)c(C)c1 (stereo not drawn) [Example 195] | 100 to 1000 nM

Row | SMILES | IC50
24 | Cc1cc(F)ccc1C(CC(=O)O)NC(=O)c1cc(O)n(-c2ccc(F)cc2F)n1 (stereo not drawn) [Example 196] | < 100 nM
25 | O=C(O)CC(NC(=O)c1cc(O)n(-c2ccc(F)cc2F)n1)c1ccc(-c2ccccc2)cc1 (stereo not drawn) [Example 197] | 100 to 1000 nM
26 | O=C(O)C[C@H](NC(=O)c1cc(O)n(-c2ccc(F)cc2F)n1)c1ccccc1C(F)(F)F [Example 198] | 100 to 1000 nM
27 | O=C(O)CC(NC(=O)c1cc(O)n(-c2ccc(F)cc2F)n1)c1ccc(Oc2ccccc2)cc1 (stereo not drawn) [Example 199] | 100 to 1000 nM
28 | O=C(O)C[C@H](NC(=O)c1cc(O)n(-c2ccc(F)cc2F)n1)c1ccc(Cl)cc1 [Example 200] | 100 to 1000 nM
29 | O=C(O)C[C@H](NC(=O)c1cc(O)n(-c2ccc(F)cc2F)n1)c1ccc(Cl)cc1Cl [Example 201] | 100 to 1000 nM
30 | O=C(O)CC(NC(=O)c1cc(O)n(-c2ccc(F)cc2F)n1)c1ccc(-c2ccc(F)cc2)cc1 (stereo not drawn) [Example 202] | 100 to 1000 nM
31 | COc1ccc(C(CC(=O)O)NC(=O)c2cc(O)n(-c3ccccc3Cl)n2)c(C)c1 (stereo not drawn) [Example 203] | 100 to 1000 nM
32 | O=C(O)C[C@H](NC(=O)c1cc(O)n(-c2ccccc2Cl)n1)c1ccccc1Br [Example 204] | 100 to 1000 nM
33 | N#Cc1cccc([C@H](CC(=O)O)NC(=O)c2cc(O)n(-c3ccccc3Cl)n2)c1 [Example 205] | 100 to 1000 nM
34 | O=C(O)CC(NC(=O)c1cc(O)n(-c2ccccc2Cl)n1)c1cccc(C(F)(F)F)c1 (stereo not drawn) [Example 206] | 100 to 1000 nM
35 | COc1ccc(C(CC(=O)O)NC(=O)c2cc(O)n(-c3ccccc3Cl)n2)c(OC)c1 (stereo not drawn) [Example 207] | 100 to 1000 nM
36 | O=C(O)CC(NC(=O)c1cc(O)n(-c2ccccc2Cl)n1)c1ccccc1F (stereo not drawn) [Example 208] | 100 to 1000 nM
37 | COc1ccc(Cl)cc1C(CC(=O)O)NC(=O)c1cc(O)n(-c2ccccc2Cl)n1 (stereo not drawn) [Example 209] | 100 to 1000 nM
38 | COc1ccc(C(CC(=O)O)NC(=O)c2cc(O)n(-c3ccccc3Cl)n2)c(Cl)c1 (stereo not drawn) [Example 210] | 100 to 1000 nM
39 | O=C(O)C[C@H](NC(=O)c1cc(O)n(-c2ccccc2Cl)n1)c1ccc(F)cc1 [Example 211] | 100 to 1000 nM
40 | O=C(O)C[C@H](NC(=O)c1cc(O)n(-c2ccccc2Cl)n1)c1cccc(Cl)c1Cl [Example 212] | < 100 nM
41 | COc1cccc([C@H](CC(=O)O)NC(=O)c2cc(O)n(-c3ccccc3Cl)n2)c1 [Example 213] | 100 to 1000 nM
42 | O=C(O)C[C@H](NC(=O)c1cc(O)n(-c2ccccc2Cl)n1)c1cccc(Cl)c1 [Example 214] | 100 to 1000 nM
43 | O=C(O)CC(NC(=O)c1cc(O)n(-c2ccccc2Cl)n1)c1ccc(OC(F)(F)F)cc1 (stereo not drawn) [Example 215] | 100 to 1000 nM
44 | COc1ccccc1[C@@H](NC(=O)c1cc(O)n(-c2ccccc2Cl)n1)[C@@H](O)C(=O)O [Example 216] | 1000 to 30000 nM
45 | Cc1cccc([C@H](CC(=O)O)NC(=O)c2cc(O)n(-c3ccccc3Cl)n2)c1 [Example 217] | 100 to 1000 nM
46 | O=C(O)C[C@H](NC(=O)c1cc(O)n(-c2ccccc2Cl)n1)c1cccc(C(F)(F)F)c1 [Example 218] | 100 to 1000 nM

Row | SMILES | IC50
47 | O=C(O)CC(NC(=O)c1cc(O)n(-c2ccccc2Cl)n1)c1ccc(-c2cccc(F)c2)cc1 (stereo not drawn) [Example 219] | 100 to 1000 nM
48 | Cc1cccc(C(CC(=O)O)NC(=O)c2cc(O)n(-c3ccccc3Cl)n2)c1C (stereo not drawn) [Example 220] | 100 to 1000 nM
49 | O=C(O)CC(NC(=O)c1cc(O)n(-c2ccccc2Cl)n1)c1cccc(C(F)(F)F)c1F (stereo not drawn) [Example 221, 3-{[1-(2-Chloro-phenyl)-5-hydroxy-1H-pyrazole-3-carbonyl]-amino}-3-(2-fluoro-3-trifluoromethyl-phenyl)-propionic acid] | 100 to 1000 nM
50 | O=C(O)CC(NC(=O)c1cc(O)n(-c2ccccc2Cl)n1)c1cccc(Cl)c1F (stereo not drawn) [Example 222] | 100 to 1000 nM
51 | O=C(O)CC(NC(=O)c1cc(O)n(-c2ccccc2Cl)n1)c1cccc(C(F)(F)F)c1Cl (stereo not drawn) [Example 223] | 100 to 1000 nM
52 | CCc1ccc(C(CC(=O)O)NC(=O)c2cc(O)n(-c3ccccc3Cl)n2)cc1 (stereo not drawn) [Example 224] | 100 to 1000 nM
53 | Cc1ccc(C(CC(=O)O)NC(=O)c2cc(O)n(-c3ccccc3Cl)n2)c(C)c1 (stereo not drawn) [Example 225] | 100 to 1000 nM
54 | O=C(O)CC(NC(=O)c1cc(O)n(-c2ccccc2Cl)n1)c1ccc(-c2ccccc2)cc1 (stereo not drawn) [Example 226] | 100 to 1000 nM
55 | O=C(O)CC(NC(=O)c1cc(O)n(-c2ccccc2Cl)n1)c1ccc(Cl)c(Cl)c1 (stereo not drawn) [Example 227] | 100 to 1000 nM
56 | O=C(O)CC(NC(=O)c1cc(O)n(-c2ccccc2F)n1)c1cccc2c1OCO2 (stereo not drawn) [Example 228] | 100 to 1000 nM
57 | O=C(O)CC(NC(=O)c1cc(O)n(-c2ccccc2F)n1)c1cccc(OCc2ccccc2)c1 (stereo not drawn) [Example 229] | 1000 to 30000 nM
58 | N#Cc1cccc([C@H](CC(=O)O)NC(=O)c2cc(O)n(-c3ccccc3F)n2)c1 [Example 230] | 100 to 1000 nM
59 | O=C(O)CC(NC(=O)c1cc(O)n(-c2ccccc2F)n1)c1cccc(C(F)(F)F)c1 (stereo not drawn) [Example 231] | 100 to 1000 nM
60 | COc1ccc(C(CC(=O)O)NC(=O)c2cc(O)n(-c3ccccc3F)n2)c(OC)c1 (stereo not drawn) [Example 232] | 100 to 1000 nM
61 | O=C(O)CC(NC(=O)c1cc(O)n(-c2ccccc2F)n1)c1ccccc1F (stereo not drawn) [Example 233] | 100 to 1000 nM
62 | COc1ccc(Cl)cc1C(CC(=O)O)NC(=O)c1cc(O)n(-c2ccccc2F)n1 (stereo not drawn) [Example 234] | 100 to 1000 nM
63 | COc1ccc(C(CC(=O)O)NC(=O)c2cc(O)n(-c3ccccc3F)n2)c(Cl)c1 (stereo not drawn) [Example 235] | 100 to 1000 nM
64 | O=C(O)C[C@H](NC(=O)c1cc(O)n(-c2ccccc2F)n1)c1ccc(F)cc1 [Example 236] | 100 to 1000 nM
65 | COc1cccc([C@H](CC(=O)O)NC(=O)c2cc(O)n(-c3ccccc3F)n2)c1 [Example 237] | 100 to 1000 nM
66 | O=C(O)CC(NC(=O)c1cc(O)n(-c2ccccc2F)n1)c1ccc(C(F)(F)F)cc1F (stereo not drawn) [Example 238] | 100 to 1000 nM
67 | O=C(O)CC(NC(=O)c1cc(O)n(-c2ccccc2F)n1)c1ccc(OC(F)(F)F)cc1 (stereo not drawn) [Example 239] | 100 to 1000 nM
68 | COc1ccccc1[C@@H](NC(=O)c1cc(O)n(-c2ccccc2F)n1)[C@@H](O)C(=O)O [Example 240] | 1000 to 30000 nM

Same assay, conditions: recombinant human cathepsin A 833 ng/ml, Bodipy FL-labeled bradykinin 2 μM, pH 5.5; read-out: CATH-A IC50

Row | SMILES | IC50
69 | O=C(O)CC(NC(=O)c1cc(O)n(-c2ccccc2Cl)n1)c1cccc(C(F)(F)F)c1F (stereo not drawn) [Example 221, 3-{[1-(2-Chloro-phenyl)-5-hydroxy-1H-pyrazole-3-carbonyl]-amino}-3-(2-fluoro-3-trifluoromethyl-phenyl)-propionic acid] | 322 nM
